Measured values from patent publication US20240228925A1, “APPARATUS AND METHOD FOR A […] ALVEOLAR LUNG-ON-A-CHIP MODEL” (priority 2021, published 2024).

System: SARS-COV-2 pseudoviral particle (pCoV-VP)
Assay type: cell-based

SMILES | decrease of cytopathic effects of pCoV-VPs (MTS assay)
CCN(CCO)CCCC(C)Nc1ccnc2cc(Cl)ccc12 (stereo not drawn) [hydroxychloroquine] | ~11.3%
CCN(CC)Cc1cc(Nc2ccnc3cc(Cl)ccc23)ccc1O [amodiaquine] | approximately 21.4%
CCC(CC)COC(=O)[C@H](C)N[P@](=O)(OC[C@H]1O[C@@](C#N)(c2ccc3c(N)ncnn23)[C@H](O)[C@@H]1O)Oc1ccccc1 [remdesivir] | ~30.0%
